Results reported in BigSolDB 2.1.

O=C(O)Cc1ccccc1[N+](=O)[O-]
solubility (mole fraction)
Details	283.15 K	288.15 K	293.15 K	298.15 K	303.15 K	308.15 K	313.15 K	318.15 K	323.15 K	328.15 K
in 1,4-dioxane	–	0.0461	0.0535	0.0618	0.0732	0.0853	0.1	0.118	0.139	0.162
in DMF	0.18	0.202	0.222	0.249	0.277	0.308	0.338	0.371	0.406	0.445
in acetonitrile	0.0143	0.016	0.0184	0.0219	0.0255	0.0304	0.0365	0.0437	0.0515	0.0604
in cyclohexane	8.88e-06	1.22e-05	1.65e-05	2.23e-05	2.94e-05	3.79e-05	4.9e-05	6.35e-05	8.34e-05	0.000108
in ethanol	0.0273	0.0317	0.0367	0.0432	0.0516	0.0627	0.0743	0.0878	0.104	0.123
in ethyl acetate	0.0285	0.0323	0.0383	0.0453	0.055	0.0651	0.0764	0.0877	0.0979	0.11
in ethylene glycol	0.0148	0.0175	0.0208	0.0245	0.0287	0.0337	0.0399	0.0473	0.0561	0.0664
in isobutanol	0.00864	0.0106	0.0134	0.0169	0.0218	0.0271	0.033	0.0394	0.0465	0.0573
in isopropanol	0.0154	0.0182	0.0216	0.0253	0.0302	0.035	0.0414	0.0482	0.0564	0.0665
in methanol	0.0409	0.0455	0.0521	0.0584	0.0673	0.0769	0.0887	0.102	0.117	0.134
in n-butanol	0.0168	0.0198	0.0233	0.0271	0.0323	0.0382	0.0451	0.0533	0.0618	0.0742
in n-propanol	0.0181	0.0219	0.0263	0.0312	0.037	0.0441	0.0533	0.0637	0.0767	0.0934
in water	5.33e-05	7.8e-05	0.000105	0.000141	0.000185	0.000248	0.000321	0.000426	0.000554	0.000727
